Experimental findings from publication PMC9953468, “In Silico, In Vitro, and Ex Vivo Biological Activity of Some Novel Mebeverine Precursors” (Biomedicines, 2023) are described below.

One data set concerns 5-HT3 receptor. As to the kind of experiment: Immunohistochemical analysis of 5-HT3 expression in gastric SM strips. Also noted: species or system Wistar rats; key to 5-HT3 expression, 5-HT / 5-HT3 expression, Response to Compound: −: absent; +: low; ++: moderate; +++: strong. The conditions noted are these: for 5-HT3 expression, Response to Compound: SM preparations incubated with the compound; for 5-HT3 expression in SM preparations: immunohistochemical staining after 1 h incubation, in words. As for the experimental part:
[…] Then, each SM strip was fixed in 10% neutral buffer formalin for 24–48 h and submitted for standard processing with hematoxylin and eosin staining.
The SM fragments from a rat’s gastric wall were fixed in a 10% neutral formalin solution and embedded in paraffin. Paraffin sections of 5 μm thickness were subjected to hematoxylin and eosin (H-E) staining for histochemical analysis.
Sections of the SM fragments from the wall of a rat’s stomach with a thickness of 5 µm were deparaffinized, then subjected to antigenic detection of the epitopes with citrate buffer, and an endogenous peroxidase blockade was made with hydrogen […] 3%, a kit was used to block the endogenous biotin, and a reagent was used to block non-specific binding (Superblock, Scy Tek, Santa Cruz Biotech. Inc. Heidelberg, Germany) follows incubate for 24 h (at 4 °C) with monoclonal mouse anti-5-HT3, next incubated with a secondary antibody: biotinylated anti-rabbit for 10 min at room temperature. The reaction was visualized with 3,3′-diaminobenzidine tetrachloride and counterstained with Mayer’s hematoxylin.
A quantitative and statistical analysis of immunohistochemical reaction using the Olympus DP-Soft image system (version 4.1 for Windows) was carried out on a Microphot-SA (Nikon, Japan) microscope equipped with a Camedia-5050 Z digital camera (Olympus, Japan). The analysis was performed on sections from the SM strips from the stomach of Wistar rats (n = 6 for each group). Five sections of the SM strips were measured, and the percentage of cells expressing 5-HT3 in the circular and longitudinal layer of SM cells, as well as in the myenteric plexus of the stomach, was determined. Each antibody was analyzed for five fields, in each of them the average number of cells with positive unit area response at ×200 magnification.

A short description of data set [1]: MTT cell viability assay. It counts as cell-based, human. Particulars: human, ± SD, read-out: In vitro cytotoxicity (IC50). As for the experimental part:
(§1) In order to evaluate the in vitro biocompatibility of the experimental compounds, a series of cell viability assays were performed against human malignant leukemic cell lines (LAMA-84, K-562) as well as normal murine fibroblast cells (CCL-1). All cell lines were purchased from the German Collection of Microorganisms and Cell Cultures (DSMZ GmbH, Braunschweig, Germany). Cell cultures were cultivated in a growth medium RPMI 1640 supplemented with 10% fetal bovine serum (FBS), 5% L-glutamine, and incubated under standard conditions of 37 °C and 5% humidified CO2 atmosphere.
(§2) The experimental design involved a number of cytotoxicity assays that measured cell growth inhibition by the newly synthesized compounds. Cell viability was evaluated using a standard MTT-based colorimetric assay. Exponential-phased cells were harvested and seeded (100 μL/well) in 96-well plates at the appropriate density (3 × 10^5) for the suspension cultures (LAMA-84 and K-562) and 1.5 × 10^5 for the adherent one (CCL-1). Cells were treated and incubated with various concentrations of the experimental compounds in the concentration range of 400-6.25 µM. After exposure time of 72 h, a filter-sterilized MTT substrate solution (5 mg/mL in PBS) was added to each well of the culture plate. A further 1–4 h incubation allowed for the formation of purple insoluble formazan precipitates. The latter were dissolved in isopropyl alcohol solution containing 5% formic acid prior to absorbance measurement at 550 nm using a microplate reader (Labexim LMR-1). Collected absorbance values were blanked against MTT and isopropanol solution and normalized to the mean value of the untreated control (100% cell viability). Semi-logarithmic “dose–response” curves were constructed and the half-inhibitory concentrations of the screened compounds against each tested cell line were calculated. Values of p ≤ 0.05 were considered statistically significant.
(In general: Formazan colour is commonly taken as a measure of viable cells.)

For data set [2], the system named is Eighteen tested microorganisms (Gram-positive bacteria, Gram-negative bacteria, yeasts, fungi). Put plainly: Antimicrobial activity, agar well diffusion method, whole panel. The format is cell-based. The conditions noted are these: whole panel of tested microorganisms, in words. The source says: Eighteen tested microorganisms including five Gram-positive bacteria (Bacillus subtilis ATCC 6633, Bacillus amyloliquefaciens 4BCL-YT, Staphylococcus aureus ATCC 25923, Listeria monocytogenes NBIMCC 8632, Enterococcus faecalis ATCC 19433), five Gram-negative bacteria (Salmonella enteritidis ATCC 13076, Klebsiella sp.—clinical isolate, Escherichia coli ATCC 25922, Proteus vulgaris ATCC 6380, Pseudomonas aeruginosa ATCC 9027), two yeasts (Candida albicans NBIMCC 74, Saccharomyces cerevisiae ATCC 9763) and six fungi (Aspergillus niger ATCC 1015, Aspergillus flavus, Penicillium sp., Rhizopus sp., Mucor sp.—plant isolates, Fusarium moniliforme ATCC 38932) from the collection of the Department of Microbiology at the University of Food Technologies—Plovdiv, Bulgaria, were selected for the antimicrobial activity test.
The antimicrobial activity of the samples was determined by the agar well diffusion method. The tested bacteria B. subtilis and B. amyloliquefaciens were cultured on LBG agar at 30 °C. The test bacteria S. aureus, L. monocytogenes, E. faecalis, S. enteritidis, Klebsiella sp., E. coli, P. vulgaris and P. aeruginosa were cultured on LBG agar at 37 °C for 24 h. The yeast C. albicans was cultured on MEA at 37 °C, while S. cerevisiae was cultured on MEA at 30 °C for 24 h. The fungi A. niger, A. flavus, Penicillium sp., Rhizopus sp., Mucor sp., and F. moniliforme were grown on MEA at 30 °C for 7 days or until sporulation.
The inocula of the tested bacteria/yeasts were prepared by homogenization of a small amount of biomass in 5 mL of sterile 0.5% NaCl. […] The number of viable cells and fungal spores was determined using a bacterial counting chamber Thoma (Poly-Optik, GmbH, Bad Blankenburg, Germany). […] Next, the inoculated media were transferred in a quantity of 18 mL in sterile Petri plates (d = 90 mm) (Gosselin™, Hazebrouck, France) and allowed to harden. […]
The antimicrobial activity was determined by measuring the diameter of the inhibition zones around the wells on the 24th and 48th h of incubation. […]

A short description of data set [3]: MTT cell viability assay. It counts as cell-based. The conditions noted are these: mouse, CCL-1, normal murine fibroblast cells, read-out: In vitro cytotoxicity (IC50). As for the experimental part:
as §1, §2

Setting [4] is: LAMA-84, CML in blast crisis (bcr-abl+).

Entries after “also recorded” stand apart in the source; their conditions may differ. Read-outs that look alike come from different tables or passages of the source.

`CC(C)C(N)Cc1ccccc1` (stereo not drawn) [Compound 3, 3-Methyl-1-phenylbutan-2-amine]: the “5-HT3 expression, Response to Compound” value with 5-HT3 receptor was “+++”. For the same molecule, in the data set on 5-HT3 receptor, the “5-HT3 expression in SM preparations” value was “higher number of 5-HT3R positive cells per section; also recorded: increased intensity in 5-HT3 expression”. In addition, the IC50 at 72 h in the data set “MTT cell viability assay [1]” (K-562, Blast phase CML (bcr-abl+)) was 250 ± 10.5 µM; in the data set “MTT cell viability assay [1]” (setting [4]) it was 239 ± 18.2 µM; in “MTT cell viability assay [3]”, > 300 µM. Further, in data set [2], the antimicrobial activity entry was “only modest activity against Gram-negative bacteria”.

Regarding `CC(=O)NC(Cc1ccccc1)C(C)C` (stereo not drawn) [Compound 4a, N-(3-methyl-1-phenylbutan-2-yl)acetamide], in the data set on 5-HT3 receptor, the “5-HT3 expression, Response to Compound” value is recorded as “−”. Besides, in the data set with 5-HT3 receptor, the “5-HT3 expression in SM preparations” value is “no modulation on the 5-HT3R expression; also recorded: no 5-HT3 expression observed”. For the same molecule, the IC50 at 72 h was 276 ± 19.7 µM in the data set “MTT cell viability assay [1]” (K-562 cells (blast phase chronic myeloid leukemia), K-562, Blast phase CML (bcr-abl+)); 360 ± 11 µM in the data set “MTT cell viability assay [1]” (setting [4]); > 300 µM in “MTT cell viability assay [3]” (CCL-1 normal fibroblast cells). The antimicrobial activity result in data set [2] is on record as “inhibited only the growth of Escherichia coli”.

A word on the IC50: it is the midpoint of a concentration-inhibition curve.
